The supplement of paper PMC5412046
Where a name gives a salt, the structure may show the parent alone.

Legend:
SB.mhdgc-1 [1] = assay: viability at highest tested concentration (MAXR) relative to DMSO; higher = less cytotoxic; settings: SB.mhdgc-1 (hereditary c.1380delA CDH1 gastric cancer)
Outline: (§1)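 Compound in DMSO was pinned (23 nL) at 11 threefold-diluted concentrations into wells containing 500 patient-derived gastric cancer cells, hereditary or sporadic, in 5 μL medium per 1536 well. Cells were incubated for 48 h, then exposed to CellTiter-Glo for 30 min at room temperature. Luminescence was measured on a ViewLux. The values are viability normalised to DMSO, either at the highest concentration or as trapezoidal area under the curve.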

SB.msgc-1 [2] = assay: as above; settings: SB.msgc-1 (sporadic gastric cancer)
Outline: as §1

SB.mhdgc-1 [3] = assay: area under the dose-response curve of % viability (trapezoidal, 11 doses) (% viability x log10 concentration); higher = less cytotoxic; settings: SB.mhdgc-1 (hereditary c.1380delA CDH1 gastric cancer)
Outline: as §1

SB.msgc-1 [4] = assay: as above; settings: SB.msgc-1 (sporadic gastric cancer)
Outline: as §1

SMILES | viability (SB.mhdgc-1 [1]) | viability (SB.msgc-1 [2]) | area under the dose-response curve (SB.mhdgc-1 [3]) | area under the dose-response curve (SB.msgc-1 [4])
Nc1ncnc2nc(-c3ccc(N4CCOCC4)nc3)cc(-c3cccc(Br)c3)c12 [ABT-702] (top concentration 46.0829 µM) | 52.2% | 40.7% | 596 | 505
O=C(NOCC1CC1)c1ccc(F)c(F)c1Nc1ccc(I)cc1Cl (top concentration 46.0829 µM) | 5.2% | 31.4% | 380 | 509
COc1cc2c(Oc3ccc(NC(=O)C4(C(=O)Nc5ccc(F)cc5)CC4)cc3F)ccnc2cc1OCCCN1CCOCC1 [Foretinib] (top concentration 46.0829 µM) | 2.84% | 0.558% | 386 | 397
CC(C)c1c(C(=O)Nc2ccccc2)c(-c2ccccc2)c(-c2ccc(F)cc2)n1CC[C@@H](O)C[C@@H](O)CC(=O)[O-] [Atorvastatin calcium] (top concentration 46.0829 µM) | 68.4% | 39% | 510 | 351
C[C@]12CC[C@H]3[C@@H](CCC/4=C/C(=O)CC[C@]34C)[C@@H]1CC[C@@H]2O [Testosterone] (top concentration 46.0829 µM) | 87.8% | 75.8% | 486 | 468
OC1=C(O)C2=C(\C=C/C(=O)O2)C=C1 [Daphnetin] (top concentration 46.0829 µM) | 72.2% | 61.4% | 468 | 535
COc1cc(C)c(/C=C/C(C)=C/C=C/C(C)=C/C(=O)O)c(C)c1C [Acitretin] (top concentration 46.0829 µM) | 135% | 92% | 627 | 571
COc1cc2nccc(Oc3ccc(NC(=O)C4(C(=O)Nc5ccc(F)cc5)CC4)cc3)c2cc1OC [Cabozantinib] (top concentration 46.0829 µM) | 51.9% | 41.3% | 418 | 446
C/C1=C2/[N]3[Co+]456([OH])<-[N]7=C1[C@@H](CCC(N)=O)C(C)(C)/C7=C/C1=[N]->4C(=C(/C)C4=[N]->5[C@@](C)([C@H]3[C@H](CC(N)=O)[C@@]2(C)CCC(=O)NC[C@@H](C)OP(=O)([O-])O[C@H]2[C@@H](O)[C@@H](n3c[n]->6c5cc(C)c(C)cc53)O[C@@H]2CO)[C@@](C)(CC(N)=O)[C@@H]4CCC(N)=O)/[C@@](C)(CC(N)=O)[C@@H]1CCC(N)=O [Hydroxocobalamin] (top concentration 46.0829 µM) | 67.6% | 32.5% | 510 | 283
C[C@]12CC[C@H]3[C@@H](CC[C@H]4NC(=O)\C=C/[C@]34C)[C@@H]1CC[C@@H]2C(=O)NC5=CC(=CC=C5C(F)(F)F)C(F)(F)F [Dutasteride] (top concentration 46.0829 µM) | 36.3% | 31.9% | 561 | 463
C\C1=C\N([C@H]2C[C@H](N=[N+]=[N-])[C@@H](CO)O2)C(=O)NC1=O [Zidovudine] (top concentration 46.0829 µM) | 2.86% | 15.7% | 448 | 575
C=CC(=O)Nc1cc(NC(=O)c2ccc(C)c(NC(=O)c3ccno3)c2)cc(C(F)(F)F)c1 (top concentration 46.0829 µM) | 4.49% | 36.4% | 521 | 504
CCOc1cc2ncc(C#N)c(Nc3ccc(F)c(Cl)c3)c2cc1NC(=O)/C=C/CN(C)C [Pelitinib] (top concentration 46.0829 µM) | 2.8% | 4.46% | 344 | 300
Clc1ccc(C(Cn2ccnc2)OCc2c(Cl)cccc2Cl)c(Cl)c1 (centres undefined) [Isoconazole nitrate] (top concentration 46.0829 µM) | 50.2% | 54.8% | 505 | 509
Cc1ccc(-c2cc(C(F)(F)F)nn2-c2ccc([S+](N)(=O)[O-])cc2)cc1 [Celecoxib] (top concentration 46.0829 µM) | 102% | 70.4% | 585 | 505
CC(C)[C@H](O)C(=O)N[C@@H](C)C(=O)N[C@@H]1C(=O)N(C)CCc2ccccc21 [Semagacestat] (top concentration 46.0829 µM) | 79.5% | 90.2% | 545 | 518
CC(C)[C@]12O[C@H]1[C@@H]3O[C@@]34[C@@]5(C)CC\C6=C(COC6=O)/[C@@H]5C[C@@H]7O[C@]47[C@@H]2O [Triptolide] (top concentration 46.0829 µM) | 61.6% | 48% | 302 | 235
[NH2][Pt]([NH2])([Cl])[Cl] [Cisplatin] (top concentration 46.0829 µM) | 74.8% | 106% | 546 | 539
CCc1ccc(C(=O)Nc2cc(CN3CCN(C)CC3)cc(C(F)(F)F)c2)cc1C#Cc1cnc2ccnn2c1 [PRP003-013] (top concentration 46.0829 µM) | 3.86% | 0.984% | 421 | 498
N#Cc1c(NC(=O)c2cccc3ccccc23)sc2c1CCCC2 [TCS JNK 5a] (top concentration 46.0829 µM) | 62.6% | 37.7% | 476 | 404
CN(C[C@@H]1COCCO1)[S+]([O-])(=O)NC2=CC3=C(C=C2)\C=C/C4=C(C=C(C=N4)C5=C[N](C)N=C5)C3=O [MK-2461] (top concentration 46.0829 µM) | 90.3% | 76.8% | 564 | 470

SMILES | viability (SB.mhdgc-1 [1]) | viability (SB.msgc-1 [2]) | area under the dose-response curve (SB.mhdgc-1 [3]) | area under the dose-response curve (SB.msgc-1 [4])
NC1=C(Cl)C(=CC=N1)OC2=C(F)C=C(NC(=O)\C3=C\N\C=C(C3=O)\C4=CC=C(F)C=C4)C=C2 (top concentration 46.0829 µM) | 62.3% | 41.1% | 413 | 497
CC(C)c1ccccc1Cc1cc(C(=O)Nc2ccc([S+](=O)([O-])c3ccccc3C(C)(C)C)cc2)c(O)c(O)c1O [TW-37] (top concentration 46.0829 µM) | 24.2% | 22.5% | 498 | 481
COc1cccc([C@@H](C)NCCCc2ccccc2Cl)c1 [NPS R568] (top concentration 46.0829 µM) | 74.4% | 22% | 525 | 320
CC(=O)N[C@H]1[C@H](O[C@@H]2c3ccc(c(Cl)c3)Oc3cc4cc(c3O[C@@H]3O[C@H](CO)[C@@H](O)[C@H](O)[C@H]3NC(=O)CCCCCCCC(C)C)Oc3ccc(cc3Cl)C[C@H]3NC(=O)[C@H](N)c5ccc(O)c(c5)Oc5cc(O)cc(c5)[C@H](NC3=O)C(=O)N[C@H]4C(=O)N[C@H]3C(=O)N[C@@H]2C(=O)N[C@@H](C(=O)O)c2cc(O)cc(O[C@H]4O[C@H](CO)[C@@H](O)[C@H](O)[C@@H]4O)c2-c2cc3ccc2O)O[C@H](CO)[C@@H](O)[C@@H]1O [Teicoplanin] (top concentration 46.0829 µM) | 128% | 110% | 483 | 513
O=C1c2cccc(O)c2C(=O)c2c(O)cc(CO)cc21 [Aloe-emodin] (top concentration 46.0829 µM) | 87.4% | 60.1% | 479 | 402
O=C(C1CC1)N1CC[C@@H](Cn2c(-c3ccc(-c4ccc5occc5c4)cc3)nc3cnccc32)C1 (top concentration 46.0829 µM) | 63.9% | 54.8% | 536 | 508
Nc1ncnc2c1ncn2[C@@H]1O[C@@H](CO)[C@H](O)[C@@H]1O [Vidarabine] (top concentration 34.4879 µM) | 89.7% | 109% | 552 | 586
CC(=O)C1=C(O)C2(C)C(=CC1=O)Oc1c(C(C)=O)c(O)c(C)c(O)c12 (single isomer, unassigned; (+)) [(+)-Usniacin] (top concentration 46.0829 µM) | 115% | 113% | 539 | 557
COc1cc(OC)c(NC(=O)Nc2cc(C)on2)cc1Cl (top concentration 46.0829 µM) | 83.2% | 62.9% | 509 | 440
ClC1=CC(=CC=C1)N2CCN(CCCN3\N=C4\C=C/C=C\N4C3=O)CC2 [Trazodone hydrochloride] (top concentration 46.0829 µM) | 82.2% | 82.2% | 486 | 530
O=C(Nc1ccncc1)C(=O)c1cn(Cc2ccc(Cl)cc2)c2ccccc12 [Indibulin] (top concentration 46.0829 µM) | 70.3% | 34.1% | 468 | 398
Cc1cc(O)c2c(c1)C(=O)c1cccc(O)c1C2=O [Chrysophanol] (top concentration 46.0829 µM) | 112% | 109% | 535 | 518
Cc1cc(OCCCc2c(C(=O)O)n(Cc3cccnc3)c3c(-c4c(COc5ccc(N6CCN([S+](C)(=O)[O-])CC6)cc5)nn(C)c4C)cccc23)cc(C)c1Cl (top concentration 46.0829 µM) | 37.7% | 37.9% | 455 | 505
C1Cc2[nH]nc(-c3nn[nH]n3)c2C1 [MK-0354] (top concentration 46.0829 µM) | 98.4% | 112% | 450 | 499
CCN(CC)CCCCNc1ncc2cc(-c3cc(OC)cc(OC)c3)c(NC(=O)NC(C)(C)C)nc2n1 (top concentration 46.0829 µM) | 2.12% | 72.5% | 471 | 482
Cn1c2ccccc2c2c3c(c4c5ccccc5n(CCC#N)c4c21)CNC3=O [G?-6976] (top concentration 46.0829 µM) | 7.79% | 17.6% | 341 | 405
CN1C(=O)CCS(=O)(=O)C1c1ccc(Cl)cc1 (centres undefined) [Chlormezanone] (top concentration 46.0829 µM) | 138% | 83.7% | 517 | 512
COCCCC/C(=N\OCCN)c1ccc(C(F)(F)F)cc1 [Fluvoxamine maleate] (top concentration 46.0829 µM) | 4.45% | 35.9% | 440 | 358
Cc1ccc(NC(=O)Nc2cc(C(F)(F)F)ccc2F)cc1Nc1ccc2c(c1)NC(=O)/C2=C\c1ccc[nH]1 [GNF-5837] (top concentration 46.0829 µM) | 1.48% | 6.76% | 430 | 455
O=C(O)CCn1c2c(c3ccccc31)C[C@H](N[S+](=O)([O-])c1ccc(F)cc1)CC2 [Ramatroban] (top concentration 46.0829 µM) | 96.4% | 98.6% | 482 | 568
